System: 991263-137-R1-J2-PDC complex spheroid viability
Assay: Anticancer human tumor 991263-137-R1-J2-PDC patient-derived colon adenocarcinoma cell line growth inhibition [POLQ]
Conditions: for IC50: curve of first compound; for viability, T/C: stronger effect = lower value
Procedure, shortened: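 Patient-derived tumour cells were co-cultured with HUVEC and mesenchymal stem cells as multicellular spheroids at 37 °C. They were treated with POLQ inhibitors (novobiocin, ART-558, RP6685) alone or combined with other agents. Top concentrations were at or near clinical Cmax (otherwise 10 microM; SN-38 at 1 microM), decreasing in half-log steps.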

[1] = second compound 0.0316 µM, first compound 0.0316 µM
[2] = second compound 0.0316 µM, first compound 0.1 µM
[3] = second compound 0.0316 µM, first compound 0.316 µM
[4] = second compound 0.0316 µM, first compound 1 µM
[5] = second compound 0.0316 µM, first compound 3.16 µM
[6] = second compound 0.0316 µM, first compound 10 µM
[7] = second compound 0.1 µM, first compound 0.0316 µM
[8] = second compound 0.1 µM, first compound 0.1 µM
[9] = second compound 0.1 µM, first compound 0.316 µM
[10] = second compound 0.1 µM, first compound 1 µM
[11] = second compound 0.1 µM, first compound 3.16 µM
[12] = second compound 0.1 µM, first compound 10 µM
[13] = second compound 0.316 µM, first compound 0.0316 µM
[14] = second compound 0.316 µM, first compound 0.1 µM
[15] = second compound 0.316 µM, first compound 0.316 µM
[16] = second compound 0.316 µM, first compound 1 µM
[17] = second compound 0.316 µM, first compound 3.16 µM
[18] = second compound 0.316 µM, first compound 10 µM
[19] = second compound 1 µM, first compound 0.0316 µM
[20] = second compound 1 µM, first compound 0.1 µM
[21] = second compound 1 µM, first compound 0.316 µM
[22] = second compound 1 µM, first compound 1 µM
[23] = second compound 1 µM, first compound 3.16 µM
[24] = second compound 1 µM, first compound 10 µM
[25] = second compound 3.16 µM, first compound 0.0316 µM
[26] = second compound 3.16 µM, first compound 0.1 µM
[27] = second compound 3.16 µM, first compound 0.316 µM
[28] = second compound 3.16 µM, first compound 1 µM
[29] = second compound 3.16 µM, first compound 3.16 µM
[30] = second compound 3.16 µM, first compound 10 µM
[31] = second compound 10 µM, first compound 0.0316 µM
[32] = second compound 10 µM, first compound 0.1 µM
[33] = second compound 10 µM, first compound 0.316 µM
[34] = second compound 10 µM, first compound 1 µM
[35] = second compound 10 µM, first compound 3.16 µM
[36] = second compound 10 µM, first compound 10 µM
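Note: spheroids exposed to compounds for 7 days before readout.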
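Throughout, for viability, T/C: 100% = DMSO vehicle control viability.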

CC1COCCN1c1cc(C2(O)CC3CCC(C2)O3)c2cnn(-c3ccn[nH]3)c2n1 (stereo unspecified) + COC1C(OC(N)=O)C(O)C(Oc2ccc3c(O)c(NC(=O)c4ccc(O)c(CC=C(C)C)c4)c(=O)oc3c2C)OC1(C)C
IC50 (second compound 0.0316 µM): 1460 nM | IC50 (second compound 0.1 µM): 1930 nM | IC50 (second compound 0.316 µM): 947 nM | IC50 (second compound 1 µM): 1580 nM | IC50 (second compound 3.16 µM): 1870 nM | IC50 (second compound 10 µM): 1450 nM | viability, T/C [1]: 85.5% | viability, T/C [2]: 95.5% | viability, T/C [3]: 81.5% | viability, T/C [4]: 58.6% | viability, T/C [5]: 33.2% | viability, T/C [6]: 29.4% | viability, T/C [7]: 102% | viability, T/C [8]: 95.3% | viability, T/C [9]: 80.4% | viability, T/C [10]: 64.8% | viability, T/C [11]: 39% | viability, T/C [12]: 25% | viability, T/C [13]: 106% | viability, T/C [14]: 100% | viability, T/C [15]: 78.9% | viability, T/C [16]: 50.5% | viability, T/C [17]: 26.5% | viability, T/C [18]: 26.1% | viability, T/C [19]: 104% | viability, T/C [20]: 106% | viability, T/C [21]: 85.7% | viability, T/C [22]: 59.8% | viability, T/C [23]: 36.2% | viability, T/C [24]: 23.7% | viability, T/C [25]: 89.8% | viability, T/C [26]: 76.4% | viability, T/C [27]: 73.9% | viability, T/C [28]: 56.1% | viability, T/C [29]: 46% | viability, T/C [30]: 21.6% | viability, T/C [31]: 84.7% | viability, T/C [32]: 95.8% | viability, T/C [33]: 74.3% | viability, T/C [34]: 56.4% | viability, T/C [35]: 36.7% | viability, T/C [36]: 21.2%

O=C(Nc1ccc(O)c(NS(=O)(=O)c2ccc(F)cc2)c1)c1ccc(-c2ccccc2)cc1 + COC1C(OC(N)=O)C(O)C(Oc2ccc3c(O)c(NC(=O)c4ccc(O)c(CC=C(C)C)c4)c(=O)oc3c2C)OC1(C)C
IC50 (second compound 0.0316 µM): > 10000 nM | IC50 (second compound 0.1 µM): > 10000 nM | IC50 (second compound 0.316 µM): > 10000 nM | IC50 (second compound 1 µM): > 10000 nM | IC50 (second compound 3.16 µM): > 10000 nM | IC50 (second compound 10 µM): > 10000 nM | viability, T/C [1]: 87.8% | viability, T/C [2]: 111% | viability, T/C [3]: 112% | viability, T/C [4]: 93.5% | viability, T/C [5]: 89.3% | viability, T/C [6]: 105% | viability, T/C [7]: 110% | viability, T/C [8]: 119% | viability, T/C [9]: 113% | viability, T/C [10]: 79.6% | viability, T/C [11]: 110% | viability, T/C [12]: 93.5% | viability, T/C [13]: 93.9% | viability, T/C [14]: 112% | viability, T/C [15]: 92.8% | viability, T/C [16]: 106% | viability, T/C [17]: 93.1% | viability, T/C [18]: 92.8% | viability, T/C [19]: 119% | viability, T/C [20]: 101% | viability, T/C [21]: 100% | viability, T/C [22]: 109% | viability, T/C [23]: 109% | viability, T/C [24]: 96.3% | viability, T/C [25]: 101% | viability, T/C [26]: 103% | viability, T/C [27]: 91.2% | viability, T/C [28]: 79.1% | viability, T/C [29]: 111% | viability, T/C [30]: 79.6% | viability, T/C [31]: 96.5% | viability, T/C [32]: 112% | viability, T/C [33]: 103% | viability, T/C [34]: 104% | viability, T/C [35]: 102% | viability, T/C [36]: 91.5%

COc1cccc2c1C(=O)c1c(O)c3c(c(O)c1C2=O)CC(O)(C(=O)CO)CC3OC1CC(N)C(O)C(C)O1 (stereo unspecified) + Cc1cccc(N(C)C(=O)C2C(O)CCN2c2nc(C)cc(C(F)(F)F)c2C#N)c1
IC50 (second compound 0.0316 µM): 1410 nM | IC50 (second compound 0.1 µM): 1850 nM | IC50 (second compound 0.316 µM): 1740 nM | IC50 (second compound 1 µM): 976 nM | IC50 (second compound 3.16 µM): 1010 nM | IC50 (second compound 10 µM): 790 nM | viability, T/C [1]: 90.1% | viability, T/C [2]: 99.4% | viability, T/C [3]: 79.1% | viability, T/C [4]: 55.9% | viability, T/C [5]: 38.5% | viability, T/C [6]: 35.3% | viability, T/C [7]: 105% | viability, T/C [8]: 91.9% | viability, T/C [9]: 92.2% | viability, T/C [10]: 56.7% | viability, T/C [11]: 46.2% | viability, T/C [12]: 33.8% | viability, T/C [13]: 114% | viability, T/C [14]: 99.4% | viability, T/C [15]: 94.8% | viability, T/C [16]: 57.2% | viability, T/C [17]: 41.7% | viability, T/C [18]: 34.1% | viability, T/C [19]: 92.8% | viability, T/C [20]: 95.4% | viability, T/C [21]: 102% | viability, T/C [22]: 48.9% | viability, T/C [23]: 44.3% | viability, T/C [24]: 27.6% | viability, T/C [25]: 99.6% | viability, T/C [26]: 107% | viability, T/C [27]: 74.2% | viability, T/C [28]: 51.8% | viability, T/C [29]: 36.4% | viability, T/C [30]: 26.9% | viability, T/C [31]: 97.1% | viability, T/C [32]: 78.3% | viability, T/C [33]: 68.9% | viability, T/C [34]: 40.8% | viability, T/C [35]: 33.7% | viability, T/C [36]: 15.7%

From PubChem BioAssay AID1963828 (Molecular Pharmacology Branch, DTP, NCI, 2024)
